pIC50: −log10 of the molar value.

The target in one assay is T1, Aminopeptidase N (Rattus norvegicus, UniProt P15684).
T1 sequence (P15684 whole entry): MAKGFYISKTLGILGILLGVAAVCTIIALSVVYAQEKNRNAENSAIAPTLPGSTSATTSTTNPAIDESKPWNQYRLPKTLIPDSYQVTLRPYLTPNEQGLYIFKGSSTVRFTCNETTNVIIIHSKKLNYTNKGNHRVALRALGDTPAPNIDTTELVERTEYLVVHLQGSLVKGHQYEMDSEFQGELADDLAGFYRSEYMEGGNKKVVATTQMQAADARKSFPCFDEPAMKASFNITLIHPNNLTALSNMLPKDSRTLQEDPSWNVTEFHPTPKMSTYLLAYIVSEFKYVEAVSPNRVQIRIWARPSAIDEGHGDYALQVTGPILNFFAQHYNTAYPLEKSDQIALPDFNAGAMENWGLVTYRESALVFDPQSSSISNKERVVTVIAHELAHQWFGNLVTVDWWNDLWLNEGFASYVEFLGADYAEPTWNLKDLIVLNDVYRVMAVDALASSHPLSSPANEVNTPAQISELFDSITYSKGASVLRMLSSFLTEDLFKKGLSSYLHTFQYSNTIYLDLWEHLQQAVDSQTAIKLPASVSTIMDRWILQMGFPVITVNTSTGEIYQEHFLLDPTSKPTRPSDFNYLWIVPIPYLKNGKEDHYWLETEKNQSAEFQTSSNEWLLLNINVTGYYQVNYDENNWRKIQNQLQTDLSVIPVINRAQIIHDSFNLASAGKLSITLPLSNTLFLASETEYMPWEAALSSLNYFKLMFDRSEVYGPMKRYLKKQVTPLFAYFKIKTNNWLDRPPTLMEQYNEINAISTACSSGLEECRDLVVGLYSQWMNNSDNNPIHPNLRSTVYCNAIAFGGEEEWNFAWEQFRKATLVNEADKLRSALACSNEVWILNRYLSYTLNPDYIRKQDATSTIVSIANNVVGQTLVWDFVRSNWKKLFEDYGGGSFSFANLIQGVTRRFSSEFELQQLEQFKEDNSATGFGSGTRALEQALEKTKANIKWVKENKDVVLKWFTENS
In words: ChEBML_35366. The procedure:
Compound was evaluated for its inhibitory potency against purified membrane bound rat brain Aminopeptidase M (AP-M) using [3H]Leu-enkephalin as substrate

In assay [1] the target is T2, Aminopeptidase B (Rattus norvegicus, UniProt O09175).
T2 sequence (O09175 whole entry): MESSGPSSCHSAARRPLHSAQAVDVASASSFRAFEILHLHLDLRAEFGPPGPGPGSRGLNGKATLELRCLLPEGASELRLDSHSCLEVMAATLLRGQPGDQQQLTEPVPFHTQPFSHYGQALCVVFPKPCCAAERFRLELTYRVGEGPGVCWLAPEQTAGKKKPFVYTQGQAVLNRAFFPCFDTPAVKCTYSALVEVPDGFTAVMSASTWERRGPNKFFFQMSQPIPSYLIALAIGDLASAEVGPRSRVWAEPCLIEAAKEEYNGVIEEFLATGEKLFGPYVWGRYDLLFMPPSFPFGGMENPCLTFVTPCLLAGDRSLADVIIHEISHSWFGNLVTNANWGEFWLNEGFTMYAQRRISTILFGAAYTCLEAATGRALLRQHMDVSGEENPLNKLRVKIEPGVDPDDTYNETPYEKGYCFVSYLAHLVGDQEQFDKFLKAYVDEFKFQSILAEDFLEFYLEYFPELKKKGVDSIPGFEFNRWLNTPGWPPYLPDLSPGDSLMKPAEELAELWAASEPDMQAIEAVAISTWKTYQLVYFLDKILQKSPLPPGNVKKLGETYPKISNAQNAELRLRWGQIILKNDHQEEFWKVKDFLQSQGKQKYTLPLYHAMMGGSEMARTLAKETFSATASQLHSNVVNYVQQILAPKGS
Kind of assay: Compound was evaluated for its inhibitory potency against purified membrane bound rat brain Aminopeptidase B (AP-B) using L-lysine-beta napthylamide as substrate.

In assay [2] the target is T2, Aminopeptidase B. Kind of assay: ChEBML_35343. The procedure: Compound was evaluated for its inhibitory potency against purified membrane bound rat brain Aminopeptidase B using L-lysine-beta napthylamide as substrate
The target of assay [3] is Aminopeptidase N (Rattus norvegicus) (UniProt P15684). Kind of assay: Compound was evaluated for its inhibitory potency against purified membrane bound rat brain Aminopeptidase.

For the compound `COC(=O)[C@H](CC(C)C)NC(=O)[C@H](O)[C@@H](N)CCCCN`, the figures for the pIC50 against Aminopeptidase N and against Aminopeptidase B [1] were less than 3.00 and 3.30, respectively. Consider `COC(=O)[C@H](Cc1c[nH]c2ccccc12)NC(=O)[C@H](O)[C@@H](N)CCCCN`, for which the pIC50 (in general, −log10 of the IC50, conventionally taken in molar units) against Aminopeptidase B [2] is 3.30. `COC(=O)[C@H](CC(C)C)NC(=O)[C@@H](O)[C@H](N)CCCCN`: the pIC50 in assay [3] is 5.70.

The values above are taken from BindingDB's records for doi:10.1021/jm00083a013 (1992).
